This note sets out measurements from US20260250318A1, “COMPOSITIONS AND METHODS FOR CROSSING THE BLOOD BRAIN BARRIER” (VOYAGER THERAPEUTICS, INC., priority 2022, published 2026).

The subject of the first experiment is brain. The experiment is described as follows: Matured TTM-001 and TTM-002 variants, NGS enrichment in mouse brain. The format is in vivo, mice. The settings on record: NGS fold-enrichment, brain of mice, relative to AAV9 control.
On to KTDKSSGSPHSKAQNQQT, for which the “Fold Enrichment relative to AAV9, Brain (Mouse)” value was 141.351 fold.

In the case of “NTIYGSGSPHSKAQNQQT (peptide inserted in AAV capsid)”, the “Fold Enrichment relative to AAV9, Brain (Mouse)” value came to 59.707 fold.

With “KTINGSVSPHGKAQNQLT (peptide inserted in AAV capsid)”, the “Fold Enrichment relative to AAV9, Brain (Mouse)” value worked out at 51.358 fold.

For KTINGTGSPHSKAQNHQI, the “Fold Enrichment relative to AAV9, Brain (Mouse)” value was 54.281 fold.

With KTERASGSPHSKAQNQQT, the “Fold Enrichment relative to AAV9, Brain (Mouse)” value is 115.550 fold.

Consider KTANGSGSPHSKAQYQQT, for which the “Fold Enrichment relative to AAV9, Brain (Mouse)” value worked out at 139.451 fold.

Take KTIPIDGSPHSKAQNQQT: the “Fold Enrichment relative to AAV9, Brain (Mouse)” value stood at 76.826 fold.

On to KTSNGGGSPHSKAQNLQT, for which the “Fold Enrichment relative to AAV9, Brain (Mouse)” value stood at 124.871 fold.

The experiment is the same for the next values; noted with them: NGS fold-enrichment, mouse brain, relative to AAV9 control.
For the sequence KTDKSSGSPHSKAQNQQT, the “Fold Enrichment relative to AAV9, Brain (Mouse)” value is 141.351 fold.

With KTINGTGSPHSKAQNHQI, the “Fold Enrichment relative to AAV9, Brain (Mouse)” value is listed as 54.281 fold.

For the sequence KTERASGSPHSKAQNQQT, the “Fold Enrichment relative to AAV9, Brain (Mouse)” value was determined as 115.550 fold.

The subject of another experiment is brains, heart, liver, muscle, and DRG of the NHPs. Put plainly: Maturation of TTM-001 and TTM-002 capsids, NGS enrichment in NHP tissues. The format is in vivo. The following applies: NGS fold-enrichment of RNA, NHP brain, relative to AAV9 control. The gist of the method: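 Variants carry mutations within and flanking the loop IV peptide insert: positions 450–466 were triplet-randomized, while positions 449–466 received low-frequency point mutations. The combined pool went into two NHPs, and each peptide was scored by NGS enrichment ratio against AAV9.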
As for KTDKSSGSPHSKAQNQQT, the “Fold Enrichment relative to AAV9, Brain (NHP)” value is given as 79.470 fold.

For KTINGTGSPHSKAQNHQI, the “Fold Enrichment relative to AAV9, Brain (NHP)” value is reported as 77.089 fold.

For the sequence KTERASGSPHSKAQNQQT, the “Fold Enrichment relative to AAV9, Brain (NHP)” value amounted to 103.669 fold.

The experiment is the same for the next values; noted with them: NGS fold-enrichment, DRG of NHPs, relative to AAV9 control.
As to KTDKSSGSPHSKAQNQQT, the “Fold Enrichment relative to AAV9, DRG (NHP)” value amounted to 0.055 fold.

On to “NTIYGSGSPHSKAQNQQT (peptide inserted in AAV capsid)”, for which the “Fold Enrichment relative to AAV9, DRG (NHP)” value turned out to be 1.739 fold.

Turning to “KTINGSVSPHGKAQNQLT (peptide inserted in AAV capsid)”, the “Fold Enrichment relative to AAV9, DRG (NHP)” value was 0.000 fold.

On to KTINGTGSPHSKAQNHQI, for which the “Fold Enrichment relative to AAV9, DRG (NHP)” value is 0.171 fold.

With KTERASGSPHSKAQNQQT, the “Fold Enrichment relative to AAV9, DRG (NHP)” value is 0.000 fold.

Consider KTANGSGSPHSKAQYQQT, for which the “Fold Enrichment relative to AAV9, DRG (NHP)” value was 0.000 fold.

Regarding KTIPIDGSPHSKAQNQQT, the “Fold Enrichment relative to AAV9, DRG (NHP)” value turned out to be 0.000 fold.

Consider KTSNGGGSPHSKAQNLQT, for which the “Fold Enrichment relative to AAV9, DRG (NHP)” value came to 0.000 fold.

Still in this experiment, the particulars now being: NGS fold-enrichment, NHP DRG, relative to AAV9 control.
KTDKSSGSPHSKAQNQQT: the “Fold Enrichment relative to AAV9, DRG (NHP)” value came to 0.055 fold.

On to KTINGTGSPHSKAQNHQI, for which the “Fold Enrichment relative to AAV9, DRG (NHP)” value amounted to 0.171 fold.

With KTERASGSPHSKAQNQQT, the “Fold Enrichment relative to AAV9, DRG (NHP)” value was found to be 0.000 fold.

Still in this experiment, the particulars now being: NGS fold-enrichment, NHP heart, relative to AAV9 control.
For the sequence KTDKSSGSPHSKAQNQQT, the “Fold Enrichment relative to AAV9, Heart (NHP)” value stood at 0.012 fold.

In the case of KTINGTGSPHSKAQNHQI, the “Fold Enrichment relative to AAV9, Heart (NHP)” value is on record as 0.000 fold.

Turning to KTERASGSPHSKAQNQQT, the “Fold Enrichment relative to AAV9, Heart (NHP)” value came out at 0.000 fold.

The same experiment, now with this note: NGS fold-enrichment, NHP liver DNA, relative to AAV9 control.
For the sequence KTDKSSGSPHSKAQNQQT, the “Fold Enrichment relative to AAV9, Liver DNA (NHP)” value is 0.367 fold.

For the sequence KTINGTGSPHSKAQNHQI, the “Fold Enrichment relative to AAV9, Liver DNA (NHP)” value stood at 0.166 fold.

As for KTERASGSPHSKAQNQQT, the “Fold Enrichment relative to AAV9, Liver DNA (NHP)” value is given as 0.070 fold.

Still in this experiment, the particulars now being: NGS fold-enrichment, NHP liver RNA, relative to AAV9 control.
With KTDKSSGSPHSKAQNQQT, the “Fold Enrichment relative to AAV9, Liver RNA (NHP)” value is recorded as 1.437 fold.

As for KTINGTGSPHSKAQNHQI, the “Fold Enrichment relative to AAV9, Liver RNA (NHP)” value was 0.000 fold.

For the sequence KTERASGSPHSKAQNQQT, the “Fold Enrichment relative to AAV9, Liver RNA (NHP)” value is recorded as 0.127 fold.

Still in this experiment, the particulars now being: NGS fold-enrichment, NHP muscle, relative to AAV9 control.
Regarding KTDKSSGSPHSKAQNQQT, the “Fold Enrichment relative to AAV9, Muscle (NHP)” value was determined as 0.000 fold.

Consider KTINGTGSPHSKAQNHQI, for which the “Fold Enrichment relative to AAV9, Muscle (NHP)” value is recorded as 0.000 fold.

As for KTERASGSPHSKAQNQQT, the “Fold Enrichment relative to AAV9, Muscle (NHP)” value turned out to be 0.000 fold.

The same experiment, now with this note: NGS fold-enrichment, RNA, brain of NHPs, relative to AAV9 control.
Take KTDKSSGSPHSKAQNQQT: the “Fold Enrichment relative to AAV9, Brain (NHP)” value is listed as 79.470 fold.

For the sequence “NTIYGSGSPHSKAQNQQT (peptide inserted in AAV capsid)”, the “Fold Enrichment relative to AAV9, Brain (NHP)” value was 71.267 fold.

For “KTINGSVSPHGKAQNQLT (peptide inserted in AAV capsid)”, the “Fold Enrichment relative to AAV9, Brain (NHP)” value came to 73.525 fold.

Regarding KTINGTGSPHSKAQNHQI, the “Fold Enrichment relative to AAV9, Brain (NHP)” value came out at 77.089 fold.

Consider KTERASGSPHSKAQNQQT, for which the “Fold Enrichment relative to AAV9, Brain (NHP)” value was found to be 103.669 fold.

Take KTANGSGSPHSKAQYQQT: the “Fold Enrichment relative to AAV9, Brain (NHP)” value was determined as 73.038 fold.

Turning to KTIPIDGSPHSKAQNQQT, the “Fold Enrichment relative to AAV9, Brain (NHP)” value amounted to 64.421 fold.

As for KTSNGGGSPHSKAQNLQT, the “Fold Enrichment relative to AAV9, Brain (NHP)” value is 68.311 fold.

Still in this experiment, the particulars now being: NGS fold-enrichment, heart of NHPs, relative to AAV9 control.
For KTDKSSGSPHSKAQNQQT, the “Fold Enrichment relative to AAV9, Heart (NHP)” value was 0.012 fold.

As to “NTIYGSGSPHSKAQNQQT (peptide inserted in AAV capsid)”, the “Fold Enrichment relative to AAV9, Heart (NHP)” value is recorded as 0.000 fold.

On to “KTINGSVSPHGKAQNQLT (peptide inserted in AAV capsid)”, for which the “Fold Enrichment relative to AAV9, Heart (NHP)” value turned out to be 0.061 fold.

In the case of KTINGTGSPHSKAQNHQI, the “Fold Enrichment relative to AAV9, Heart (NHP)” value came out at 0.000 fold.

As for KTERASGSPHSKAQNQQT, the “Fold Enrichment relative to AAV9, Heart (NHP)” value is on record as 0.000 fold.

As for KTANGSGSPHSKAQYQQT, the “Fold Enrichment relative to AAV9, Heart (NHP)” value is listed as 0.000 fold.

As for KTIPIDGSPHSKAQNQQT, the “Fold Enrichment relative to AAV9, Heart (NHP)” value is listed as 0.047 fold.

Turning to KTSNGGGSPHSKAQNLQT, the “Fold Enrichment relative to AAV9, Heart (NHP)” value stood at 0.052 fold.

Staying with this experiment, now noted: NGS fold-enrichment, liver DNA of NHPs, relative to AAV9 control.
In the case of KTDKSSGSPHSKAQNQQT, the “Fold Enrichment relative to AAV9, Liver DNA (NHP)” value came to 0.367 fold.

As to “NTIYGSGSPHSKAQNQQT (peptide inserted in AAV capsid)”, the “Fold Enrichment relative to AAV9, Liver DNA (NHP)” value stood at 0.209 fold.

Turning to “KTINGSVSPHGKAQNQLT (peptide inserted in AAV capsid)”, the “Fold Enrichment relative to AAV9, Liver DNA (NHP)” value stood at 0.053 fold.

For KTINGTGSPHSKAQNHQI, the “Fold Enrichment relative to AAV9, Liver DNA (NHP)” value is listed as 0.166 fold.

As for KTERASGSPHSKAQNQQT, the “Fold Enrichment relative to AAV9, Liver DNA (NHP)” value is on record as 0.070 fold.

As for KTANGSGSPHSKAQYQQT, the “Fold Enrichment relative to AAV9, Liver DNA (NHP)” value is 0.160 fold.

Consider KTIPIDGSPHSKAQNQQT, for which the “Fold Enrichment relative to AAV9, Liver DNA (NHP)” value was determined as 0.936 fold.

Consider KTSNGGGSPHSKAQNLQT, for which the “Fold Enrichment relative to AAV9, Liver DNA (NHP)” value was found to be 0.000 fold.

Still in this experiment, the particulars now being: NGS fold-enrichment, liver RNA of NHPs, relative to AAV9 control.
For the sequence KTDKSSGSPHSKAQNQQT, the “Fold Enrichment relative to AAV9, Liver RNA (NHP)” value is recorded as 1.437 fold.

As to “NTIYGSGSPHSKAQNQQT (peptide inserted in AAV capsid)”, the “Fold Enrichment relative to AAV9, Liver RNA (NHP)” value amounted to 0.000 fold.

On to “KTINGSVSPHGKAQNQLT (peptide inserted in AAV capsid)”, for which the “Fold Enrichment relative to AAV9, Liver RNA (NHP)” value came out at 0.000 fold.

As for KTINGTGSPHSKAQNHQI, the “Fold Enrichment relative to AAV9, Liver RNA (NHP)” value was 0.000 fold.

With KTERASGSPHSKAQNQQT, the “Fold Enrichment relative to AAV9, Liver RNA (NHP)” value was found to be 0.127 fold.

KTANGSGSPHSKAQYQQT: the “Fold Enrichment relative to AAV9, Liver RNA (NHP)” value is 0.153 fold.

As to KTIPIDGSPHSKAQNQQT, the “Fold Enrichment relative to AAV9, Liver RNA (NHP)” value was 0.234 fold.

Regarding KTSNGGGSPHSKAQNLQT, the “Fold Enrichment relative to AAV9, Liver RNA (NHP)” value is on record as 0.000 fold.

The experiment is the same for the next values; noted with them: NGS fold-enrichment, muscle of NHPs, relative to AAV9 control.
Turning to KTDKSSGSPHSKAQNQQT, the “Fold Enrichment relative to AAV9, Muscle (NHP)” value is recorded as 0.000 fold.

For “NTIYGSGSPHSKAQNQQT (peptide inserted in AAV capsid)”, the “Fold Enrichment relative to AAV9, Muscle (NHP)” value was 273.69 fold.

As to “KTINGSVSPHGKAQNQLT (peptide inserted in AAV capsid)”, the “Fold Enrichment relative to AAV9, Muscle (NHP)” value is on record as 0.067 fold.

Regarding KTINGTGSPHSKAQNHQI, the “Fold Enrichment relative to AAV9, Muscle (NHP)” value is reported as 0.000 fold.

As to KTERASGSPHSKAQNQQT, the “Fold Enrichment relative to AAV9, Muscle (NHP)” value is reported as 0.000 fold.

On to KTANGSGSPHSKAQYQQT, for which the “Fold Enrichment relative to AAV9, Muscle (NHP)” value was determined as 0.000 fold.

Regarding KTIPIDGSPHSKAQNQQT, the “Fold Enrichment relative to AAV9, Muscle (NHP)” value stood at 0.000 fold.

Regarding KTSNGGGSPHSKAQNLQT, the “Fold Enrichment relative to AAV9, Muscle (NHP)” value is given as 0.000 fold.
